Legend:
Assay type in all cases: in vivo
CES3 [1] = assay: CES3 expression in Fuzzy rat epidermal split after 8 days of topical treatment, Affymetrix transcriptome analysis; details: topical 1% once a day for 8 days, female FUZZY rat
Description: The studies are carried out in female Fuzzy rats (Hsd: FUZZY-fz) 10 weeks old at the beginning of the study. The animals are treated at a dose of 1% (PPARg agonist Rosiglitazone in solution in acetone) once a day for 8 days. Two hours after the final treatment, the animals are sacrificed by euthanasia and the skin on the back is removed. After incubation in […], the epidermis carrying the sebaceous glands is detached from the dermis (epidermal split). After grinding of the samples, the mRNA is prepared using Qiagen columns, in accordance with the suppliers' instructions. The material thus prepared is subjected to large-scale transcriptome analysis on an Affymetrix platform. The data are subsequently standardized and, after statistical analysis, the results produced are expressed in arbitrary expression units (see below) accompanied, for each piece of data, by a statistical value for presence of the transcript (presence=1; absence=0).

CES3 [2] = assay: CES3 gene expression in rat sebaceous gland (epidermal split) after topical PPARgamma agonist, real-time PCR; details: topical 1% in acetone, female FUZZY rat, mRNA standardized to 18S, versus carrier group; for CES3 Relative induction - kinetics (hours): 0: 0 hours; for CES3 Relative induction - kinetics (hours): 8: 8 hours; for CES3 Relative induction - kinetics (hours): 24: 24 hours; for CES3 Relative induction - kinetics (hours): 48: 48 hours; for CES3 Relative induction - kinetics (hours): 96: 96 hours
From the text: (§1) Materials and methods: • Animals: Species: rat • Strain: Ico:Hsd FUZZY-fz • Gender: female • Age: 10 weeks • Number per batch: 40 (8 animals per group) • Treatment: Route of administration: topical • Compound/batch: PPARgamma agonists: • A: 5-{4-[2-(methylpyridin-2-ylamino)ethoxy]benzyl}thiazolidine-2,4-dione • B: 2-(methoxyethoxymethoxy)naphthalene-2-carboxylic acid [4′-(2,4-dioxothiazolidin-5-ylmethyl)biphenyl-3-ylmethyl]methylamide […] • C: (S)-2-ethoxy-3-{4-[6-(3-heptyl-1-methylureido)pyridin-2-yl]phenyl}propionic acid • Doses: 1% • Carrier: acetone (001) • Duration: 96 hours Method of evaluation: The animals are weighed at the beginning and at the end of the study. Skin biopsies are taken (6 samples of skin excised per rat) in order to analyze the expression of the genes (RNA extraction, reverse transcriptase and real-time PCR). The samples are stored at 4° C. overnight before incubation in 1 M sodium bromide (NaBr) for 2 hours at 37° C. After incubation, the samples are separated into epidermis or dermis. The epidermal samples are stored at […]. Under these conditions, the sebaceous glands are in the epidermal split. PCRs are carried out, beginning with the cDNAs originating from the epidermal splits containing sebaceous glands from control rats or rats treated with a PPARγ agonist: the mRNA is extracted using a column and quantified. The quality of the mRNAs is measured and is represented by the 18S/28S ratio. The results are standardized with respect to 18S, expressed as relative induction versus untreated animals (carrier group). The statistical analysis is obtained using internal software based on a modified Monte Carlo statistical analysis.

CES1 = CES1 gene expression in rat sebaceous gland (epidermal split) after topical PPARgamma agonist, real-time PCR; details: topical 1% in acetone, female FUZZY rat, mRNA standardized to 18S, versus carrier group; for CES1 Relative induction - kinetics (hours): 0: 0 hours; for CES1 Relative induction - kinetics (hours): 8: 8 hours; for CES1 Relative induction - kinetics (hours): 24: 24 hours; for CES1 Relative induction - kinetics (hours): 48: 48 hours; for CES1 Relative induction - kinetics (hours): 96: 96 hours
From the text: as §1, with “Ico:HSd:FUZZY-fz” for “Ico:Hsd FUZZY-fz”

| SMILES | Significance of the expression after treatment with 1% Rosiglitazone (presence =1, absence =0) (CES3 [1]; control condition 1) | Expression after treatment with 1% Rosiglitazone (CES3, 1370363_at) (CES3 [1]; control condition 443) | CES3 Relative induction - kinetics (hours): 0 (CES3 [2]) | CES3 Relative induction - kinetics (hours): 8 (CES3 [2]) | CES3 Relative induction - kinetics (hours): 24 (CES3 [2]) | CES3 Relative induction - kinetics (hours): 48 (CES3 [2]) | CES3 Relative induction - kinetics (hours): 96 (CES3 [2]) | CES1 Relative induction - kinetics (hours): 0 (CES1) | CES1 Relative induction - kinetics (hours): 8 (CES1) | CES1 Relative induction - kinetics (hours): 24 (CES1) | CES1 Relative induction - kinetics (hours): 48 (CES1) | CES1 Relative induction - kinetics (hours): 96 (CES1) |
| --- | --- | --- | --- | --- | --- | --- | --- | --- | --- | --- | --- | --- |
| CN(CCOc1ccc(CC2SC(=O)NC2=O)cc1)c1ccccn1 (stereo not shown) [Rosiglitazone] | 0 | 15 arbitrary expression units |  |  |  |  |  |  |  |  |  |  |
| CN(CCOc1ccc(CC2SC(=O)NC2=O)cc1)c1ccccn1 (stereo not shown) [A, 5-{4-[2-(methylpyridin-2-ylamino)ethoxy]benzyl}thiazolidine-2,4-dione] |  |  | 1 | 1.72 | 0.46 | 0.22 | 0.07 | 1 | 1.93 | 1.01 | 0.45 | 0.13 |
| CCCCCCCNC(=O)N(C)c1cccc(-c2ccc(C[C@H](OCC)C(=O)O)cc2)n1 [C, (S)-2-ethoxy-3-{4-[6-(3-heptyl-1-methylureido)pyridin-2-yl]phenyl}propionic acid] |  |  | 1 | 0.33 | 0.12 | 0.02 | 0.00 | 1 | 0.55 | 0.38 | 0.04 | 0.03 |

Reference: patent US20110150774A1, “SCREENING FOR MODULATORS OF CES1 AND/OR CES3 FOR THE TREATMENT OF ACNE, OF SEBORRHOEIC DERMATITIS OR OF HYPERSEBORRHOEA” (GALDERMA RESEARCH & DEVELOPMENT, priority 2008, published 2011)
